# Source: the RepoRT retention time repository (doi:10.1016/j.jhazmat.2019.121712)
# Assay: Thermo Scientific Acclaim RSLC 120 C18, 100 × 2.1 mm, 2.2 µm, 30 °C; A: 90% water + 10% methanol + 0.01% formic acid + 5 mM ammonium formate; B: methanol + 0.01% formic acid + 5 mM ammonium formate; gradient (min/%B) 0.1/1 3/39 14/99.9 16/99.9
# Settings: stereoisomer not certain
row,Compound,LC retention time
1,c1ccc2c(c1)Cc1ccccc1N1CCNCC21 (centres undefined),6.86 min
2,CCNc1nc(NC(C)C)nc(SC)n1,9.16 min
3,CCCCCn1c2ccccc2c2cc(C(=O)c3cccc4ccccc34)ccc21,14.2 min
4,COc1ccc(C(=O)c2cn(CCCCC(=O)O)c3ccccc23)cc1,8.81 min
5,COc1ccc2c3c1OC1C(=O)CCC4(O)C(C2)N(C)CCC314 (centres undefined),3.61 min
6,S=c1[nH]c2ccccc2s1,6.89 min
7,COc1cc2c(cc1OC)C13CCN4CC5=CCOC6CC(=O)N2C1C6C5CC43 (centres undefined),4.21 min
8,Cc1cc(O)ccc1CC(C)N (centres undefined),2.98 min
9,CCOC(=O)NC(=S)Nc1ccccc1NC(=S)NC(=O)OCC,8.61 min
10,CC12CCC3C(CC=C4CC(O)CCC43C)C1CCC2=O (centres undefined),10.2 min
11,COc1ccc(N)cc1N,2.37 min
12,O=C(c1cccc2ccccc12)c1cn(CCCCO)c2ccccc12,9.56 min
13,Cn1cc[nH]c1=S,2.61 min
14,CCNc1nc(NC(C)(C)C)nc(SC)n1,10.2 min
15,CCSCc1ccccc1OC(=O)NC,7.7 min
16,CC(C(=O)c1ccccc1)N(C)C (centres undefined),3.64 min
17,COc1ccc(C(CN(C)C)C2(O)CCCCC2)cc1 (centres undefined),6.14 min
18,CCCCCn1cc(C(=O)NC23CC4CC(CC(C4)C2)C3)c2ccccc21,13.2 min
19,CCCC(Cc1ccccc1)N1CCCC1 (centres undefined),5.56 min
20,O=C1CN=C(c2ccccc2)c2c(sc3c2CCCC3)N1,9.49 min

# Second part, the molecule after the results:
row,LC retention time,Compound
1,7.9 min,CCc1cc2c(cc1CC)CC(NCC(O)c1ccc(O)c3[nH]c(=O)ccc13)C2 (centres undefined)
2,6.28 min,Cc1ccc(C(=CCN2CCCC2)c2ccccn2)cc1
3,10.3 min,COC(=O)C1=C(C#N)NC(C)=C(C(=O)OC(C)C)C1c1cccc([N+](=O)[O-])c1 (centres undefined)
4,8.98 min,CCCCC1C(=O)N(c2ccccc2)N(c2ccccc2)C1=O
5,12.2 min,CCOc1nc2cccc(C(=O)OC(C)OC(=O)OC3CCCCC3)c2n1Cc1ccc(-c2ccccc2-c2nn[nH]n2)cc1 (centres undefined)
6,9.86 min,C(=Cc1ccccc1)CN1CCN(C(c2ccccc2)c2ccccc2)CC1
7,7.83 min,CCCCOc1ccc(CC(=O)NO)cc1
8,3.56 min,Cn1c(=O)c2c(ncn2CCCNCC(O)c2cc(O)cc(O)c2)n(C)c1=O (centres undefined)
9,2.69 min,CC(Cn1cnc2c(N)ncnc21)OCP(=O)(O)O (centres undefined)
10,8.18 min,CCCc1nn(C)c2c(=O)[nH]c(-c3cc(C(=O)CN4CCN(CC)C(=O)C4=O)ccc3OCC)nc12
11,10.9 min,COC(=O)NC(C(=O)NC(Cc1ccccc1)C(O)CN(Cc1ccc(-c2ccccn2)cc1)NC(=O)C(NC(=O)OC)C(C)(C)C)C(C)(C)C (centres undefined)
12,6.58 min,CCNC(=O)C(C)OC(=O)Nc1ccccc1 (centres undefined)
13,7.54 min,COc1cc(C(=O)OCCCN(C)CCN(C)CCCOC(=O)c2cc(OC)c(OC)c(OC)c2)cc(OC)c1OC
14,5.01 min,COC(=O)C(Cc1ccccc1)NC(=O)C(N)CC(=O)O (centres undefined)
15,1.31 min,CC(O)CN1CCN(CC(=O)O)CCN(CC(=O)O)CCN(CC(=O)O)CC1 (centres undefined)
16,1.93 min,NC(N)=NS(=O)(=O)c1ccc(N)cc1
17,7.83 min,CCCCNc1cc(C(=O)O)cc(S(N)(=O)=O)c1Oc1ccccc1
18,7.08 min,CC(C(=O)O)c1ccc(CC(C)(C)O)cc1 (centres undefined)
19,6.23 min,CCN1CC(CCN2CCOCC2)C(c2ccccc2)(c2ccccc2)C1=O (centres undefined)
20,6.94 min,COc1ccc(C(C[N+](C)(C)[O-])C2(O)CCCCC2)cc1 (centres undefined)
21,5.89 min,COc1ccc(CN(CCN(C)C)c2ccccn2)cc1
22,3.48 min,Nc1ccc(S(=O)(=O)Nc2ncccn2)cc1
23,3.73 min,CN1C2CCC1CC(OC(=O)C(O)c1ccccc1)C2 (centres undefined)
24,3.24 min,NC(N)=Nc1nc(CSCCC(N)=NS(N)(=O)=O)cs1
